Publication PMC8284004, “Electrospun wound dressings containing bioactive natural products: physico-chemical characterization and biological assessment” (Biomaterials Research, 2021)
Where two headings read alike, the source gives them in different places. Marks after values point to notes of the source that are not given here.

What was measured:
S. epidermidis LMG 10474 = assay: Kirby-Bauer disc diffusion; type: cell-based, Staphylococcus epidermidis; conditions: for zone of inhibition at 30 µg/disc: Staphylococcus epidermidis; for Inhibition zone: 53 μM/disc (30 μg/disc for dimeric A/S, 15 μg/disc for shikonin and alkannin)
Method: (§1) The antibacterial activity of neat and A/S mixture-loaded fibrous scaffolds was evaluated against the Gram-positive strains, Staphylococcus epidermidis LMG 10474 and S. aureus LMG 8224, implementing the Kirby-Bauer disc diffusion method. The bacteria were cultured onto nutrient agar plates (24 h at 37 °C) and then a dense bacterial suspension was made by transferring a small portion of staphylococci (10 μL) with an inoculating loop to 1 mL of sterile PBS. Next, 100 μL of this suspension were spread to Mueller-Hinton (MH) agar plates for conducting the test. UV-sterilized nanofibers with an average diameter of 8 mm were placed on the surface of inoculated MH plates. The plates were incubated for a period of 24 h at 37 °C. […] After 24 h, the antibacterial activity was evaluated by measuring the inhibition zone of the bacteria in millimeters.

S. aureus LMG 8224 = assay: Kirby-Bauer disc diffusion; type: cell-based, Staphylococcus aureus; conditions: for zone of inhibition at 30 µg/disc: Staphylococcus aureus; for Inhibition zone: 53 μM/disc (30 μg/disc for dimeric A/S, 15 μg/disc for shikonin and alkannin)
Method: as §1

keratinocytes = tested on: keratinocytes; set-up: method as in PMID 27725239; conditions: at 1.5 and 3 μΜ ref 40; cited from earlier work
[1] = n-octanol/water (1:1, v/v) ref Ordoudi et al. [24]; cited from earlier work
Hs27 fibroblasts = assay: SAR study of A/S derivatives on Hs27 metabolic activity (MTT); conditions: for Effect on Hs27 cell viability: 24 h, MTT, vs untreated cells
Method: (§2) In this regard, each compound was first dissolved in DMSO and further diluted with DMEM up to the desired concentrations (< 0.1% v/v DMSO to avoid toxicity). […] After the respective incubation times, the metabolic activity was evaluated by MTT assay as described in the previous section. Untreated cells served as controls.

S. aureus = tested on: S. aureus; set-up: method as in PMID 760130, PMID 5066306; conditions: cited from earlier work
S. epidermidis = tested on: S. epidermidis; set-up: method as in PMID 760130, PMID 5066306; conditions: cited from earlier work
[2] = SAR study of A/S derivatives on Hs27 metabolic activity (MTT); conditions: human
Method: as §2

human skin fibroblasts = tested on: human skin fibroblasts; set-up: method as in PMID 25234005; conditions: non-selective toxicity towards normal cell lines ref 42; cited from earlier work
[3] = tested on: granuloma tissue in Wistar rats; set-up: method as in PMID 9586574; conditions: dose-dependent ref 41; cited from earlier work
[4] = tested on: human gingival fibroblasts; set-up: method as in PMID 31574951; conditions: at 1 μΜ ref 39; cited from earlier work
[5] = LMG10474, 30 μg/disc on 8 mm filter paper, 24 h, read-out: Zone of inhibition
[6] = LMG8224, 30 μg/disc on 8 mm filter paper, 24 h, read-out: Zone of inhibition

SMILES | zone of inhibition at 30 µg/disc (S. epidermidis LMG 10474; LMG10474, 24 h) | zone of inhibition at 30 µg/disc (S. aureus LMG 8224; LMG8224, 24 h) | Log P [1] | zone of inhibition at 30 µg/disc (S. epidermidis LMG 10474; [5]) | zone of inhibition at 30 µg/disc (S. aureus LMG 8224; [6]) | Growth inhibition (S. aureus) | Effect on Hs27 cell viability (Hs27 fibroblasts; 1 μM) | Inhibition zone (S. epidermidis LMG 10474) | Inhibition zone (S. aureus LMG 8224) | IC50 (human skin fibroblasts) | Proliferation of granuloma tissue [3] | other results
CC(C)=CCCC1=CC(=O)c2c(O)ccc(O)c2C1=O [Deoxy-shikonin, deoxy-shikonin] | 13.2 ± 0.22 mm | 12.4 ± 0.23 mm | 1.08^c |  |  |  |  |  |  |  |  | In vitro migration (keratinocytes): enhanced the in vitro migration
CC(C)=CCC(OC(=O)CC(C)C)C1=CC(=O)c2c(O)ccc(O)c2C1=O (stereo not shown) [Isovaleryl-shikonin, isovaleryl-shikonin] |  |  |  | 11.1 ± 0.94 mm | 9.13 ± 0.51 mm |  |  |  |  |  |  | Proliferation rate ranking (Hs27 fibroblasts; day 3, isovaleryl-shikonin at 500 nM and 1 μM, dimeric A/S at 1 μM): highest proliferation rates
CC(C)=CCC(OC(=O)C=C(C)C)C1=CC(=O)c2c(O)ccc(O)c2C1=O (stereo not drawn) [β,β-Dimethyl-acryl-shikonin, β,β-dimethyl-acryl-shikonin] |  |  | 1.38 ^c | 10.6 ± 0.57 mm | 8.98 ± 0.17 mm | effective |  |  |  |  |  | Growth inhibition (S. epidermidis): effective
CC(C)=CC[C@H](O)C1=CC(=O)c2c(O)ccc(O)c2C1=O [Alkannin, alkannin] | 15.2 mm | 12.7 ± 0.58 mm | −0.27 ^c |  |  |  | significant decrease in cell number | 10.69 ± 1.01 mm | 10.74 ± 0.74 mm | 1500 ± 100 nM | succeeded in accelerating (dose-dependently) the proliferation of granuloma tissue | viability at 3 days, 0.5 µM [2]: > 110%; Zone of inhibition (S. epidermidis LMG 10474; 30 μg/disc on 8 mm filter paper, 24 h): 15.16 ± 0.66 mm
CC(C)=CC[C@@H](O)C1=CC(=O)c2c(O)ccc(O)c2C1=O [Shikonin, shikonin] | 14.8 ± 2.12 mm | 12.3 ± 0.64 mm | −0.27 ^c |  |  | inhibited the growth | significant decrease in cell number | 10.77 ± 1.07 mm | 11.08 ± 0.26 mm | 1200 ± 100 nM | succeeded in accelerating (dose-dependently) the proliferation of granuloma tissue | Effect on Hs27 cell viability (Hs27 fibroblasts; 500 nM): significant decrease in cell number; In vitro migration [4]: enhanced the in vitro migration
CC(=O)O[C@H](CC=C(C)C)C1=CC(=O)c2c(O)ccc(O)c2C1=O [Acetyl-shikonin, acetyl-shikonin] | 14.1 ± 1.25 mm | 11.9 ± 1.43 mm | 0.66 ^c |  |  | inhibited the growth |  |  |  |  |  | 
